From ChEMBL document CHEMBL1201862, “PubChem BioAssay data set” (2004)
The source made the active and inactive calls.

How the values were obtained:
[1] = target: Protein-tyrosine kinase 2-beta (Homo sapiens, UniProt Q14289);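 note: potency of inhibitors of PYK2 kinase phosphorylation of poly-GT substrate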
[2] = target: Major prion protein (Homo sapiens, UniProt P04156); assay type: functional, cell-based
[3] = target: Cytochrome P450 2D6 (Homo sapiens, UniProt P10635);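 note: CYP2D6 member of a cytochrome P450 panel assay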
[4] = target: Cytochrome P450 2C9 (Homo sapiens, UniProt P11712)
[5] = cells
[6] = Late stage counterscreen for inhibitors of Trypanosoma brucei methionyl tRNA synthetase (MetRS): Luminescence-based cell-based high throughput dose response assay to identify compounds that are cytotoxic to Jurkat human T lymphocyte cells.; assay type: functional
[7] = target: Peroxisome proliferator-activated receptor gamma/Nuclear receptor coactivator 1 (Homo sapiens, UniProt P37231); assay: (§1) TR-FRET dose response biochemical High Throughput Screening assay for agonists of the steroid receptor coactivator 1 (SRC-1) recruitment by the peroxisome proliferator-activated receptor gamma (PPAR gamma): non-selective agonists. [Related pubchem assays (depositor defined):AID1300, AID1808, AID504735, AID631]; assay type: protein assay
[8] = target: Peroxisome proliferator-activated receptor gamma/Nuclear receptor coactivator 3 (Homo sapiens, UniProt P37231); assay: as §1, with “3 (SRC-3)” for “1 (SRC-1)”, “assays: 1301 (Confirmation screen.), 1048 (Primary screen.)]” for “assays (depositor defined):AID1300, AID1808, AID504735, AID631]”; assay type: functional
[9] = target: Peroxisome proliferator-activated receptor gamma/Nuclear receptor coactivator 2 (Homo sapiens, UniProt P37231); assay: TR-FRET dose response biochemical High Throughput Screening assay for agonists of the steroid receptor coactivator 2 (SRC-2) recruitment by the peroxisome proliferator-activated receptor gamma (PPAR gamma): non-selective agonists. [Related pubchem assays: 1297, 1032 ]; assay type: functional
[10] = target: T1, Protein skinhead-1 (Caenorhabditis elegans, UniProt P34707); assay type: functional
T1 sequence (P34707 whole entry): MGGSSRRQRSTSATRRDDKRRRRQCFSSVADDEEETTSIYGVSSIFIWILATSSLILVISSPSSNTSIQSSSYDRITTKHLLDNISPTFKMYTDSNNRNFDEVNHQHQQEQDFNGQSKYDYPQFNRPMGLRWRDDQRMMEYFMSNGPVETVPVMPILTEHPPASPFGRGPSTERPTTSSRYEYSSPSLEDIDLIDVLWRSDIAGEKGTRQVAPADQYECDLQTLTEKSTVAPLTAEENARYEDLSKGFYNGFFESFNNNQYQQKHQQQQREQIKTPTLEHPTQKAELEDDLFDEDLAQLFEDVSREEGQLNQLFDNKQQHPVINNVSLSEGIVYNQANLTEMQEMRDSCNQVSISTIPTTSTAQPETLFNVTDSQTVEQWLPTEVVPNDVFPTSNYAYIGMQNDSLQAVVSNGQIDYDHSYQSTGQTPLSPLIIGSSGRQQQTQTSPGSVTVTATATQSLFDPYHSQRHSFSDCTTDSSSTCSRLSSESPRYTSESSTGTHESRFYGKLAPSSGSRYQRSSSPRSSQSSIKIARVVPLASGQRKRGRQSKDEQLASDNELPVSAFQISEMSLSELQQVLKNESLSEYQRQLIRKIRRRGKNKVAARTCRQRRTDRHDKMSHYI

[11] = potency of ADAM10 substrate cleavage blockers – biochemical, QFRET, dose response (AID 743254);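 note: ADAM10 enzyme with the DM2 quenched FRET peptide as substrate; EDANS fluorescence gain as the protease cuts the substrate; inhibitor potency against ADAM10 proteolytic activity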
[12] = target: Disintegrin and metalloproteinase domain-containing protein 17 (Homo sapiens, UniProt P78536); assay: inhibition of ADAM17 substrate cleavage – biochemical, quenched FRET substrate, counter-screen for ADAM10 exosite inhibitor project, dose response (AID 743253)
[13] = HEK-293T cell viability reduction – luminescence, B-cell screen hits, cytotoxicity control for BCR NF-kB inhibitor project, dose response (AID 489021); assay type: functional, cell-based;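 note: HEK-293T cells carrying an NF-kB luciferase reporter; cells exposed to compound for about 14 hours before viability readout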
[14] = reduction of Shn3 3'UTR-driven luciferase in osteoblasts – cell-based, Clone20 osteoblasts, firefly luciferase, cherry-picked, dose response (AID 624132); assay type: functional;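 note: firefly luciferase luminescence from reporter carrying the Shn3 3'UTR in osteoblasts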
[15] = loss of viability in HepG2 cells – cell-based, CellTiter-Glo, cherry-picked, cytotoxicity control for Shn3 inhibitor project, dose response (AID 624134); assay type: functional
[16] = non-specific 3'UTR reporter inhibition in Clone20-Shn3RL – cell-based, Renilla luciferase, cherry-picked, counter-screen for Shn3 inhibitor project, dose response (AID 624133); assay type: functional
[17] = target: Galanin receptor type 3 (Homo sapiens, UniProt O60755); assay: Fluorescence-based cell-based primary high throughput dose response assay to identify antagonists of the Galanin Receptor 3 (GalR3).; assay type: functional
[18] = cells; assay type: functional, cell-based; settings: HEK-CNG
[19] = off-target signal loss in HeLa-CEM21 co-culture – HeLa F-luc CTL cells, cherry-picked, counter-screen for HIV-1 Env fusion inhibitor project, dose response (AID 652040); assay type: functional, cell-based;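 note: potency for signal decrease marking cytotoxic or nonspecific inhibition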
[20] = HIV-1 AD8 envelope cell-cell fusion blockers – cherry-pick, dose response (AID 652062); assay type: functional, cell-based;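 note: luciferase signal from cell-cell fusion driven by HIV-1 clade B AD8 Env; potency is for inhibitors of fusion seen as a drop in luminescence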
[21] = target: COUP transcription factor 2 (Homo sapiens, UniProt P24468); assay: Luminescence-based cell-based high throughput dose response assay to identify inhibitors of COUP-TFII (NR2F2).; assay type: functional;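 note: HEK293 cells transiently cotransfected with COUP-TFII expression vector and reporter; luciferase reporter luminescence driven by COUP-TFII from the pX2-168 reporter plasmid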
[22] = target: Paired box protein Pax-8 (Homo sapiens, UniProt Q06710); assay: PAX8 transcriptional activity inhibition in RMG-I – RMG-I cells, luciferase, cherry-pick, dose response (AID 687027); assay type: functional, cell-based;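 note: luciferase reporter driven by Pax8 target thyroperoxidase promoter measured by SteadyGlo luminescence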
[23] = target: NAD-dependent protein deacylase sirtuin-5, mitochondrial (Homo sapiens, UniProt Q9NXA8); assay: blockers of sirtuin-5 peptide desuccinylation – biochemical, fluorescence imaging, cherry-pick, set 6, dose response (AID 720597)
[24] = OVCAR8 cell viability loss – plate reader, dry powder samples, PAX8 project, dose response (AID 743197); assay type: functional, cell-based; settings: OVCAR-8
[25] = tested on: Vero; assay: viability loss in Vero cells – cell-based, plate reader, cherry-pick samples, cytotoxicity control, dose response (AID 687020); assay type: functional; settings: Chlorocebus sabaeus
[26] = toxicity toward immortalized ovarian surface epithelium – cell-based, plate reader, dry powder samples, cytotoxicity control for PAX8 inhibitor project, dose response (AID 743045); assay type: functional
[27] = OVCAR-3 cell viability loss – plate reader, dry powder samples, PAX8 inhibitor project, dose response (AID 743044); assay type: functional, cell-based
[28] = inhibitors acting on PAX2 in cells – cell-based, plate reader, dry powder samples, selectivity assay for PAX8 inhibitor project, dose response (AID 743048); assay type: functional;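 note: HEK293 cells carrying a WT1 promoter luciferase reporter driven by expressed Pax2; potency is for inhibition of Pax2 driven reporter signal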
[29] = PAX5 cellular inhibition readout – cell-based, plate reader, dry powder samples, selectivity assay for PAX8 inhibitor project, dose response (AID 743047); assay type: functional;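 note: HEK293 cells carrying a Pax5 driven CD19 promoter luciferase reporter; potency of inhibitors that lower reporter luminescence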
[30] = OV-90 cell viability loss – plate reader, dry powder, SA8, PAX8 inhibitor project, dose response (AID 743149); assay type: functional, cell-based
[31] = PAX8-dependent cell viability loss – plate reader, dry powder, dose response (AID 743049); assay type: functional, cell-based
[32] = IGROV1 cell killing – plate reader, dry powder samples, PAX8 inhibitor project, dose response (AID 743043); assay type: functional, cell-based; settings: IGROV-1
[33] = general cell-killing toxicity readout – plate reader, dry powder samples, cytotoxicity control for PAX8 inhibitor project, dose response (AID 743021); assay type: functional, cell-based
[34] = anti-trypanosomal activity in BESM host cells – imaging, CA-I/72 strain, bovine embryo skeletal muscle, dry powder, dose response (AID 651885); assay type: functional, cell-based
[35] = viability loss in HepG2 hepatoma cells – cell-based, cherry-picks, set 5, cytotoxicity control, dose response (AID 1053118); assay type: functional
[36] = viability loss in HEK293 kidney cells – cell-based, cherry-picks, set 5, cytotoxicity control, dose response (AID 1053117); assay type: functional
[37] = viability loss in A549 lung cancer cells – cell-based, cherry-picks, […], cytotoxicity control, dose response (AID 1053119); assay type: functional
[38] = blockers of FN fibrillogenesis by fibroblasts – AH1F cells, Alexa488-FN fluorescence, cherry-picks, dose response (AID 1035475); assay type: functional, cell-based
[39] = target: Kappa-type opioid receptor (Homo sapiens, UniProt P41145); assay: kappa opioid receptor antagonism potency – cell-based, fluorescence, dose response, late-stage follow-up (AID 652032); assay type: functional
[40] = inhibitors of non-replicating M. tuberculosis, dose response, luciferase, dry powder (AID 651619); assay type: functional; settings: Mycobacterium tuberculosis
[41] = inhibitors of non-replicating M. tuberculosis, dose response, luciferase, dry powder (AID 651620); assay type: functional; settings: Mycobacterium tuberculosis
[42] = cervical cancer cell viability loss – HeLa, 24 h, plate reader, powder samples, set 3, cytotoxicity control, dose response (AID 651864); assay type: functional, cell-based
[43] = viability of BHK-21 cells – cell-based, secondary screen, cytotoxicity control for flavivirus guanylyltransferase probe project (AID 624078); assay type: functional
[44] = cytotoxicity in MITF-independent A375 cells – cell-based, CellTiter-Glo luminescence, dry powder, set 4, counter-screen for MITF inhibitor project, dose response (AID 624364); assay type: functional; settings: A-375;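 note: A375 melanoma cells are MITF independent so this is a counter screen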
[45] = viability loss in MITF-independent A375 cells – cell-based, CellTiter-Glo luminescence, dry powder, set 2, counter-screen for MITF inhibitor project, dose response (AID 624489); assay type: functional; settings: A-375;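 note: actives are compounds lowering A375 viability meaning general cytotoxicity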
[46] = A549 cell cytotoxicity, dose response, cytotoxicity control, plate reader, cherry-pick, antagonist series (AID 743412); assay type: functional, cell-based
[47] = toxicity toward HepG2 liver cells – cell-based, plate reader, cherry-pick, antagonist series, cytotoxicity control, dose response (AID 743416); assay type: functional
[48] = inhibition of bursicon-driven LGR2 cAMP signaling – cell-based, HEK293, CRE-luciferase reporter, cherry pick, dose response (AID 743342); assay type: functional
[49] = viability loss in HEK293 cells – cell-based, plate reader, cherry-picked samples, cytotoxicity control, dose response (AID 743446); assay type: functional
[50] = mouse embryonic fibroblast toxicity – cell-based, plate reader, dry powder, set 2, cytotoxicity control, dose response (AID 652280); assay type: functional; settings: NIH3T3
[51] = T. cruzi growth inhibition in host cells, dose response, cell-based, plate reader, dry powder, set 2 (AID 652275); assay type: functional

CCc1nc(SCC(=O)NNC(=O)C2CCCCC2)c2ccccc2n1
IC50 [1]: > 69.5 µM (not active) | IC50 [2]: 1.18 µM (active) | AC50 [3]: inconclusive | AC50 [4]: inconclusive | IC50 [5]: > 138 µM (inactive)

O=C(CCC(=O)Nc1cccc([N+](=O)[O-])c1)NN=Cc1cccs1
IC50 [6]: > 83.3 µM (inactive)

COc1ccc2nc(SCC(=O)Nc3ccc(S(=O)(=O)N4CCCC4)cc3)c(C#N)cc2c1
EC50 [7]: 7.32 µM (active) | EC50 [8]: > 26.5 µM (not active) | EC50 [9]: 7.11 µM (active) | IC50 [10]: > 100 µM (inactive) | IC50 [11]: > 69.5 µM (inactive) | IC50 [12]: > 69.5 µM (inactive)

Cc1cc(C)c(CN2CCN(C(=O)Cn3cnc4c(NCc5ccccc5)ncnc43)CC2)c(C)c1
IC50 [13]: > 80 µM (inactive) | AC50 [14]: 0.417 µM (active) | AC50 [15]: 0.773 µM (active) | AC50 [16]: 0.818 µM (active) | IC50 [17]: 0.363 µM (active) | EC50 [18]: > 29.9 µM (inactive) | AC50 [19]: 27.3 µM (active) | AC50 [20]: 1.59 µM (active) | IC50 [21]: 2.71 µM (active)

C[C@@H]1CCCCO[C@H](CN(C)Cc2ccc(C(F)(F)F)cc2)[C@@H](C)CN([C@@H](C)CO)C(=O)c2cc(NS(=O)(=O)c3ccccc3)ccc2O1
AC50 [22]: 4.17 µM (active) | AC50 [23]: 23.5 µM (active) | AC50 [24]: 67.5 µM (active)

C[C@@H]1CCCCO[C@H](CN(C)Cc2ccc(C(F)(F)F)cc2)[C@H](C)CN([C@@H](C)CO)C(=O)c2cc(NC(=O)c3ccccc3)ccc2O1
AC50 [25]: 28.7 µM (active) | AC50 [22]: 19.1 µM (active) | AC50 [26]: 42.4 µM (active) | AC50 [27]: 33.2 µM (active) | AC50 [24]: 17.8 µM (active)

C[C@H]1CN([C@@H](C)CO)C(=O)Cc2cc(NC(=O)NC3CCCCC3)ccc2O[C@@H]1CN(C)Cc1ccc(-c2ccccc2)cc1
AC50 [22]: 14.5 µM (active) | AC50 [28]: 19.3 µM (active) | AC50 [29]: 20.8 µM (active) | AC50 [30]: > 70 µM (inactive) | AC50 [31]: > 70 µM (inactive)

C[C@@H]1CCCCO[C@H](CN(C)Cc2ccc(Cl)c(Cl)c2)[C@@H](C)CN([C@@H](C)CO)C(=O)c2cc(NS(=O)(=O)c3ccccc3)ccc2O1
AC50 [22]: 5 µM (active) | AC50 [27]: 21.2 µM (active) | AC50 [32]: 44.6 µM (active) | AC50 [33]: 2.38 µM (active)

CC(C)N1C[C@H](C)[C@@H](CN(C)C(=O)OC(C)(C)C)Oc2c(NC(=O)c3ccccc3)cccc2C1=O
IC50 [34]: > 20 µM (inactive)

CO[C@@H]1CN(C)C(=O)c2ccc(NC(=O)Nc3ccc(Cl)c(Cl)c3)cc2OC[C@@H](C)NC[C@@H]1C
AC50 [35]: 24.2 µM (active) | AC50 [36]: 20.4 µM (active) | AC50 [37]: 13.1 µM (active) | AC50 [38]: 36.8 µM (active)

COC(=O)c1cc(Br)cnc1N1CCC(OC2CCCCC2O)CC1 (stereo unspecified)
IC50 [39]: > 50 µM (inactive)

O=S(=O)(Cc1ccccc1)c1nnc(-c2ccccc2)o1
IC90 [40]: 2 µM (active) | IC90 [41]: 2 µM (active)

CCn1nccc1NCc1ccc(N2CCCC2)cc1
AC50 [42]: > 160 µM (inactive)

Cn1c(=O)c2[nH]c(-c3ccc(Cl)cc3)c(O)c2n(C)c1=O
CC50 [43]: > 100 µM (active)

C=CCNC1=C(N(C)C(C)=O)C(=O)c2ccccc2C1=O
AC50 [44]: 8.92 µM (active) | AC50 [45]: 2.59 µM (active)

C[C@H]1CCCCO[C@@H](CN(C)C(=O)Nc2ccc(C(F)(F)F)cc2)[C@@H](C)CN([C@@H](C)CO)C(=O)c2cc(NC(=O)CCC(F)(F)F)ccc2O1
AC50 [46]: 31 µM (active) | AC50 [47]: > 52 µM (inactive) | AC50 [48]: 4.55 µM (active) | AC50 [49]: > 52 µM (inactive)

O=C(C1CC1)N1CCCCN2[C@@H](CO)[C@H](c3ccc(-c4cccc(F)c4)cc3)[C@@H]2C1
AC50 [50]: 26.7 µM (active) | AC50 [51]: 0.312 µM (active)
